Assay results taken from US11059815B2, “Synthesis of small molecule histone deacetylase 6 degraders, compounds formed thereby, and pharmaceutical compositions containing them” (Wisconsin Alumni Research Foundation, priority 2018, dated 2021).
Like-named read-outs stand apart in the source and are kept apart here.

System: MM1S cells
Assay: Cell viability assay in MM1S cells
Format: cell-based, human
Conditions: for Maximal Inhibition (%) of growth / IC50: 0.3 nM to 3 μM, nonlinear fit, ± SD; for IC50 / inhibition at 1 µM: Homo sapiens, MM1.S; for IC50: read-out: IC50 of antiproliferation
Procedure: FIG. 14A is a histogram depicting cell viability of MM1S cells treated with compounds at 1 μM for 72 h. FIG. 14B is a graph showing cell viability of MM1S cells treated with compounds at concentrations from 0.3 nM to 3 μM for 72 h. All data were normalized to vehicle (DMSO)-treated group and dot plot represented as mean of relative viability (n=3) with ±SD as error bar. For the curve in FIG. 14B, nonlinear fitting of inhibitor concentration vs. response (three parameters) was generated by GraphPad Prism with R^2 from 0.92 to 0.97. Statistical significance was analyzed by one-way ANOVA for FIG. 14A and two-way ANOVA for FIG. 14B. Not significant (ns) P>0.05, *P≤0.05, **P≤0.01, ***P≤0.001, ****P≤0.0001.
FIG. 18 is a histogram showing that HDAC6 degrader and IMiD inhibited MM1S growth synergistically. MM1S cells were treated for 72 h and cell proliferation was examined by AlarmaBlue-brand cell viability assay (ThermoFisher Scientific, Waltham, Mass., USA). Statistical significance was analyzed by one-way ANOVA. Not significant (ns) P>0.05, *P≤0.05, **P≤0.01, ***P≤0.001, ****P≤0.000
Single treatment or co-treatment was performed as combined therapy (1 μM) for 72 hours in MM1S cells. […] However, the single treatment of 12d improved about 19% (P=0.0017) and 11% (P=0.0213) growth inhibition comparing with the combination sets of 13+15 (1:1) and pomalidomide+Next-A (1:1), respectively. To further confirm the observed enhancement, the anti-proliferation in response to 12d was studied from 0.3 nM to 3 μM. This single treatment was compared with dual treatment of 13 and 15 to rule out the potential complication derived from cell permeability issue. Degrader 12d lowered the bottom line (minimal proliferation) of curve over 20% although its IC50 was […] consequentially.
MM1S cells were harvested and plated with 1×10^5 cells in […] media per well in 96-well plate. After overnight seeding, 25 μL media containing 5× dosing concentration of the compounds or vehicle was added to each well. After 72-hour treatment at 37° C. in a humidified 5% CO2 atmosphere, 12.5 μL 10× resazurin solution (1 mg/mL) was added to each well. Then cells were incubated at 37° C. overnight. The optical density was read at 570 nm and 600 nm by plate reader.
The relative viability (RV) was measured by followed formula: […]
The single treatment of HDAC6 inhibitor, HDAC6 degrader 3j, IMiD (pomalidomide), and the combination of the two was compared in MM1S cells to evaluate cell vialility. […] Pomalidomide suppressed ˜50% proliferation at either 1 μM or 100 nM concentration. […] The results confirmed that HDAC6 degradation and IKZF degradation work synergistically to inhibit the growth of multiple myeloma cells.

## CCCCN(Cc1ccc(C(=O)NO)cc1)C(=O)Nc1ccc(OCCCCCn2cc(CNc3cccc4c3C(=O)N(C3CCC(=O)NC3=O)C4=O)nn2)cc1 (stereo not shown) [Compound 2]
  anti-proliferation effect of degrader alone: significant anti-proliferation effect

## CCCCN(Cc1ccc(C(=O)NO)cc1)C(=O)Nc1ccc(OCCCCCn2cc(CNc3cccc4c3C(=O)N(C3CCC(=O)NC3=O)C4=O)nn2)cc1 (stereo not shown) [Compound 12d, 4-((1-butyl-3-(4-((5-(4-(((2-(2,6-dioxopiperidin-3-yl)-1,3-dioxoisoindolin-4-yl)amino)methyl)-1H-1,2,3-triazol-1-yl)pentyl)oxy)phenyl)ureido)methyl)-N-hydroxybenzamide]
72 h
  Maximal Inhibition (%) of growth: 63.15 ± 1.82%
  degrader concentration at which HDAC6 degradation and IKZF degradation had synergistic effects: > 300 nM
  IC50: 74.9 ± 11.3 nM
72 h, versus 13 and 15 dual treatment
  lowering of bottom line (minimal proliferation) of curve: over 20%
1 μM, 72 h, P=0.0017, read-out: improvement of growth inhibition compared with 13+15 (1:1)
  inhibition at 1 µM: ~19%
1 μM, 72 h, P=0.0213, read-out: improvement of growth inhibition compared with pomalidomide+Next-A (1:1)
  inhibition at 1 µM: ~11%

## CCCCN(Cc1ccc(C(=O)OC)cc1)C(=O)Nc1ccc(OCCCCCn2cc(CNc3cccc4c3C(=O)N(C3CCC(=O)NC3=O)C4=O)nn2)cc1 (stereo not shown) [Compound 13, Methyl 4-((1-butyl-3-(4-((5-(4-(((2-(2,6-dioxopiperidin-3-yl)-1,3-dioxoisoindolin-4-yl)amino)methyl)-1H-1,2,3-triazol-1-yl)pentyl)oxy)phenyl)ureido)methyl)benzoate]
72 h
  Maximal Inhibition (%) of growth: 43.96 ± 1.16%
  IC50: 17.7 ± 2.84 nM

## CCCCN(Cc1ccc(C(=O)NO)cc1)C(=O)Nc1ccc(OCCCCCn2cc(CNc3cccc4c3C(=O)N(C3CCC(=O)N(C)C3=O)C4=O)nn2)cc1 (stereo not shown) [Compound 15, 4-((1-butyl-3-(4-((5-(4-(((2-(1-methyl-2,6-dioxopiperidin-3-yl)-1,3-dioxoisoindolin-4-yl)amino)methyl)-1H-1,2,3-triazol-1-yl)pentyl)oxy)phenyl)ureido)methyl)-N-hydroxybenzamide]
1 μM, 72 h
  effect on cell growth: totally inactive

## CCCCN(Cc1ccc(C(=O)NO)cc1)C(=O)Nc1ccccc1 [Next-A, 4-[[butyl[(phenylamino)carbonyl]amino]methyl]-N-hydroxy-benzamide, reference compound]
1 μM, 72 h
  anti-proliferation effect, single treatment: did not show any anti-proliferation effect
  effect on cell growth: minor effects

## Nc1cccc2c1C(=O)N(C1CCC(=O)NC1=O)C2=O (stereo not shown) [Pomalidomide, reference compound]
Either 1 μM or 100 nM, 72 h
  suppression of proliferation: ~50%
